Data published in PMC10893631, “Receptor-based pharmacophore modeling, molecular docking, synthesis and biological evaluation of novel VEGFR-2, FGFR-1, and BRAF multi-kinase inhibitors” (BMC Chemistry, 2024).

Legend:
Assay in all cases: NCI SRB growth inhibition (single dose 10 µM / five-dose)
Assay type in all cases: cell-based, human
[1] = tested on: OVCAR-3; conditions: Homo sapiens; for inhibition at 10 µM: OVCAR-3 (Ovarian cancer), read-out: GI%; for GI50: OVCAR-3, Ovarian cancer, five-dose
How it was run: (§1)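 Cells plated at 5000–40,000 cells/well by doubling time; time-zero plates TCA-fixed after 24 h. Compounds (DMSO stocks) added at five 10-fold or ½-log concentrations plus control. Adherent cells TCA-fixed, stained with 0.4% SRB in 1% acetic acid; percentage growth from Tz, C and Ti absorbances.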

[2] = tested on: SF-539; conditions: Homo sapiens; for inhibition at 10 µM: SF-539 (CNS cancer), read-out: GI%; for GI50: SF-539, CNS cancer, five-dose
How it was run: as §1

[3] = tested on: SK-MEL-5; conditions: Homo sapiens; for inhibition at 10 µM: SK-MEL-5 (Melanoma), read-out: GI%; for GI50: SK-MEL-5, Melanoma, five-dose
How it was run: as §1

[4] = tested on: MALME-3 M; conditions: Homo sapiens; for inhibition at 10 µM: MALME-3 M (Melanoma), read-out: GI%; for GI50: MALME-3 M, Melanoma, five-dose
How it was run: as §1

[5] = tested on: MDA-MB-435; conditions: Homo sapiens; for inhibition at 10 µM: MDA-MB-435 (Melanoma), read-out: GI%; for GI50: MDA-MB-435, Melanoma, five-dose
How it was run: as §1

[6] = tested on: HCT-116; conditions: Homo sapiens, HCT-116; for inhibition at 10 µM: read-out: GI%
How it was run: as §1

[7] = tested on: SK-OV-3; conditions: Homo sapiens; for inhibition at 10 µM: SK-OV-3 (Ovarian cancer), read-out: GI%; for GI50: SK-OV-3, Ovarian cancer, five-dose
How it was run: as §1

[8] = tested on: NCI/ADR-RES; conditions: Homo sapiens; for inhibition at 10 µM: NCI/ADR-RES (Ovarian cancer), read-out: GI%; for GI50: NCI/ADR-RES, Ovarian cancer, five-dose
How it was run: as §1

[9] = tested on: TK-10; conditions: Homo sapiens; for inhibition at 10 µM: TK-10 (Renal cancer), read-out: GI%; for GI50: TK-10, Renal cancer, five-dose
How it was run: as §1

[10] = tested on: SF-295; conditions: Homo sapiens; for inhibition at 10 µM: SF-295 (CNS cancer), read-out: GI%; for GI50: SF-295, CNS cancer, five-dose
How it was run: as §1

[11] = tested on: OVCAR-4; conditions: Homo sapiens; for inhibition at 10 µM: OVCAR-4 (Ovarian cancer), read-out: GI%; for GI50: OVCAR-4, Ovarian cancer, five-dose
How it was run: as §1

[12] = tested on: IGROV1; conditions: Homo sapiens, IGROV-1; for inhibition at 10 µM: IGROV1 (Ovarian cancer), read-out: GI%; for GI50: IGROV1, Ovarian cancer, five-dose
How it was run: as §1

[13] = tested on: SK-MEL-28; conditions: Homo sapiens; for inhibition at 10 µM: SK-MEL-28 (Melanoma), read-out: GI%; for GI50: SK-MEL-28, Melanoma, five-dose
How it was run: as §1

[14] = tested on: RPMI-8226; conditions: Homo sapiens; for inhibition at 10 µM: RPMI-8226 (Leukemia), read-out: GI%; for GI50: RPMI-8226, Leukemia, five-dose
How it was run: as §1

[15] = tested on: RXF 393; conditions: Homo sapiens; for inhibition at 10 µM: RXF 393 (Renal cancer), read-out: GI%; for GI50: RXF 393, Renal cancer, five-dose
How it was run: as §1

[16] = tested on: SW-620; conditions: Homo sapiens; for inhibition at 10 µM: SW-620 (Colon cancer), read-out: GI%; for GI50: SW-620, Colon cancer, five-dose
How it was run: as §1

[17] = tested on: UACC-62; conditions: Homo sapiens; for inhibition at 10 µM: UACC-62 (Melanoma), read-out: GI%; for GI50: UACC-62, Melanoma, five-dose
How it was run: as §1

[18] = tested on: T-47D; conditions: Homo sapiens, T47D; for inhibition at 10 µM: T-47D (Breast cancer), read-out: GI%; for GI50: T-47D, Breast cancer, five-dose
How it was run: as §1

[19] = tested on: M14; conditions: Homo sapiens; for inhibition at 10 µM: M14 (Melanoma), read-out: GI%; for GI50: M14, Melanoma, five-dose
How it was run: as §1

[20] = tested on: 786–0; conditions: Homo sapiens; for inhibition at 10 µM: 786–0 (Renal cancer), read-out: GI%; for GI50: 786–0, Renal cancer, five-dose
How it was run: as §1

[21] = tested on: NCI-H226; conditions: Homo sapiens; for inhibition at 10 µM: NCI-H226 (Non-small cell lung cancer), read-out: GI%; for GI50: NCI-H226, Non-small cell lung cancer, five-dose
How it was run: as §1

[22] = tested on: UO-31; conditions: Homo sapiens; for inhibition at 10 µM: UO-31 (Renal cancer), read-out: GI%; for GI50: UO-31, Renal cancer, five-dose
How it was run: as §1

[23] = tested on: K-562; conditions: Homo sapiens, K562; for inhibition at 10 µM: K-562 (Leukemia), read-out: GI%; for GI50: K-562, Leukemia, five-dose
How it was run: as §1

Question: Which results are given for `COc1cccc(C=NNC(=O)c2ccc3[nH]c(-c4ccc(Cl)cc4)nc3c2)c1` [8q, 2-(4-Chlorophenyl)-N'-(3-methoxybenzylidene)-1H-benzo[d]imidazole-5-carbohydrazide]?
Answer: inhibition at 10 µM [1]: > 100%; GI50 [1]: 3240 nM; inhibition at 10 µM [2]: > 100%; GI50 [2]: 7.14 µM; inhibition at 10 µM [3]: > 100%; GI50 [3]: 4.9 µM; inhibition at 10 µM [4]: > 100%; GI50 [4]: 1540 nM; inhibition at 10 µM [5]: 98.9%; GI50 [5]: 3.9 µM; GI50 [6]: 3060 nM; inhibition at 10 µM [6]: > 100%; inhibition at 10 µM [7]: > 100%; GI50 [7]: 2020 nM; inhibition at 10 µM [8]: 23%; GI50 [8]: 94.8 µM; inhibition at 10 µM [9]: > 100%; GI50 [9]: 23.9 µM; inhibition at 10 µM [10]: > 100%; GI50 [10]: 2170 nM; inhibition at 10 µM [11]: > 100%; GI50 [11]: 3070 nM; inhibition at 10 µM [12]: > 100%; GI50 [12]: 3010 nM; inhibition at 10 µM [13]: > 100%; GI50 [13]: 2150 nM; inhibition at 10 µM [14]: > 100%; GI50 [14]: 1470 nM; inhibition at 10 µM [15]: > 100%; GI50 [15]: 2060 nM; inhibition at 10 µM [16]: > 100%; GI50 [16]: 2.93 µM; inhibition at 10 µM [17]: > 100%; GI50 [17]: 4.92 µM; inhibition at 10 µM [18]: > 100%; GI50 [18]: 1950 nM; inhibition at 10 µM [19]: > 100%; GI50 [19]: 2150 nM; inhibition at 10 µM [20]: > 100%; GI50 [20]: 1850 nM; inhibition at 10 µM [21]: > 100%; GI50 [21]: 2570 nM; inhibition at 10 µM [22]: 81.7%; GI50 [22]: 3460 nM; inhibition at 10 µM [23]: 98.1%; GI50 [23]: 3140 nM

Question: Which results are given for `COc1cccc(C=NNC(=O)c2ccc3[nH]c(-c4ccccc4)nc3c2)c1O` [8d, N'-(2-hydroxy-3-methoxybenzylidene)-2-phenyl-1H-benzo[d]imidazole-5-carbohydrazide]?
Answer: inhibition at 10 µM [1]: > 100%; GI50 [1]: 420 nM; inhibition at 10 µM [2]: > 100%; GI50 [2]: 1.31 µM; inhibition at 10 µM [3]: > 100%; GI50 [3]: 1.4 µM; inhibition at 10 µM [4]: > 100%; GI50 [4]: 1370 nM; inhibition at 10 µM [5]: 74.6%; GI50 [5]: 4.69 µM; GI50 [6]: 1840 nM; inhibition at 10 µM [6]: 97.4%; GI50 [7]: 2560 nM; inhibition at 10 µM [8]: 48%; GI50 [8]: 4.65 µM; inhibition at 10 µM [9]: 50.6%; GI50 [9]: 4.78 µM; inhibition at 10 µM [10]: 83.2%; GI50 [10]: 2930 nM; inhibition at 10 µM [11]: > 100%; GI50 [11]: 1850 nM; inhibition at 10 µM [12]: 79.9%; GI50 [12]: 2340 nM; inhibition at 10 µM [13]: 96.2%; GI50 [13]: 1780 nM; inhibition at 10 µM [14]: 98.5%; GI50 [14]: 1860 nM; inhibition at 10 µM [15]: 86%; GI50 [15]: 3210 nM; inhibition at 10 µM [16]: 70.8%; GI50 [16]: 3.77 µM; inhibition at 10 µM [17]: 99.5%; GI50 [17]: 1.22 µM; GI50 [18]: 1930 nM; inhibition at 10 µM [19]: > 100%; GI50 [19]: 1570 nM; inhibition at 10 µM [20]: 86%; GI50 [20]: 2470 nM; inhibition at 10 µM [21]: > 100%; GI50 [21]: 530 nM; inhibition at 10 µM [22]: 98.5%; GI50 [22]: 2340 nM; inhibition at 10 µM [23]: 60.9%; GI50 [23]: 2040 nM

Question: Which results are given for `COc1ccc(-c2nc3cc(C(=O)NN=Cc4cc(OC)ccc4OC)ccc3[nH]2)cc1` [8m, N'-(2,5-Dimethoxybenzylidene)-2-(4-methoxyphenyl)-1H-benzo[d]imidazole-5-carbohydrazide]?
Answer: inhibition at 10 µM [1]: < 5%; inhibition at 10 µM [2]: 32.6%; inhibition at 10 µM [3]: 22.3%; inhibition at 10 µM [4]: 18.3%; inhibition at 10 µM [5]: < 5%; inhibition at 10 µM [6]: 22.3%; inhibition at 10 µM [7]: < 5%; inhibition at 10 µM [8]: < 5%; inhibition at 10 µM [9]: < 5%; inhibition at 10 µM [10]: 19.9%; inhibition at 10 µM [11]: 8.31%; inhibition at 10 µM [12]: < 5%; inhibition at 10 µM [13]: 5.7%; inhibition at 10 µM [14]: 76.8%; inhibition at 10 µM [15]: 15.2%; inhibition at 10 µM [16]: < 5%; inhibition at 10 µM [17]: 6.39%; inhibition at 10 µM [18]: 40.6%; inhibition at 10 µM [19]: < 5%; inhibition at 10 µM [20]: 29%; inhibition at 10 µM [21]: < 5%; inhibition at 10 µM [22]: 9.12%; inhibition at 10 µM [23]: 22.8%
